Results taken from patent US8927717B1, “Thiochromeno[2,3-c]quinolin-12-one derivatives, preparation method and application thereof” (National Defense Medical Center, priority 2014, dated 2015).

Assays:
Format in all cases: cell-based
PC-3 = conditions: Prostate cancer; 10^−5 molar; 48 hours; SRB
BT-549 = conditions: Breast cancer; 10^−5 molar; 48 hours; SRB
NCI-H522 = conditions: Non-small cell lung cancer; 10^−5 molar; 48 hours; SRB
MDA-MB-231/ATCC = conditions: Breast cancer; 10^−5 molar; 48 hours; SRB
DU-145 = conditions: Prostate cancer; 10^−5 molar; 48 hours; SRB
COLO 205 = conditions: Colon cancer; 10^−5 molar; 48 hours; SRB
SF-295 = conditions: CNS cancer; 10^−5 molar; 48 hours; SRB
SNB-75 = conditions: CNS cancer; 10^−5 molar; 48 hours; SRB
SN12C = conditions: Renal cancer; 10^−5 molar; 48 hours; SRB
HS 578T = conditions: Breast cancer; 10^−5 molar; 48 hours; SRB
HCT-116 = conditions: Colon cancer; 10^−5 molar; 48 hours; SRB
T-47D = conditions: Breast cancer; 10^−5 molar; 48 hours; SRB
OVCAR-8 = conditions: Ovarian cancer; 10^−5 molar; 48 hours; SRB
MDA-MB-486 = conditions: Breast cancer; 10^−5 molar; 48 hours; SRB
A549/ATCC = conditions: Non-small cell lung cancer; 10^−5 molar; 48 hours; SRB
SR = conditions: Leukemia; 10^−5 molar; 48 hours; SRB
HT29 = conditions: Colon cancer; 10^−5 molar; 48 hours; SRB
HL-60(TB) = conditions: Leukemia; 10^−5 molar; 48 hours; SRB
KM12 = test: cells; conditions: Colon cancer; 10^−5 molar; 48 hours; SRB
MOLT-4 = conditions: Leukemia; 10^−5 molar; 48 hours; SRB
RPMI-8226 = conditions: Leukemia; 10^−5 molar; 48 hours; SRB
786-0 = conditions: Renal cancer; 10^−5 molar; 48 hours; SRB
RXF 393 = conditions: Renal cancer; 10^−5 molar; 48 hours; SRB
SW-620 = conditions: Colon cancer; 10^−5 molar; 48 hours; SRB
HCT-15 = conditions: Colon cancer; 10^−5 molar; 48 hours; SRB
LOX IMVI = conditions: Melanoma; 10^−5 molar; 48 hours; SRB
U251 = conditions: CNS cancer; 10^−5 molar; 48 hours; SRB
K-562 = conditions: Leukemia; 10^−5 molar; 48 hours; SRB
SK-MEL-5 = conditions: Melanoma; 10^−5 molar; 48 hours; SRB
60 cancer cell lines = test: NCI 60-cell screen, SRB, whole panel (mean, delta, range); conditions: 10^−5 molar, 48 hours, SRB; for Growth percent, Delta: delta over the cell panel; for Growth percent, Mean: mean over the cell panel; for Growth percent, Range: range over the cell panel
MCF7 = conditions: Breast cancer; 10^−5 molar; 48 hours; SRB
NCI-H226 = conditions: Non-small cell lung cancer; 10^−5 molar; 48 hours; SRB
ACHN = conditions: Renal cancer; 10^−5 molar; 48 hours; SRB
NCI-H460 = conditions: Non-small cell lung cancer; 10^−5 molar; 48 hours; SRB
SK-OV-3 = conditions: Ovarian cancer; 10^−5 molar; 48 hours; SRB
NCI-H23 = conditions: Non-small cell lung cancer; 10^−5 molar; 48 hours; SRB
UO-31 = conditions: Renal cancer; 10^−5 molar; 48 hours; SRB
CCRF-CEM = conditions: Leukemia; 10^−5 molar; 48 hours; SRB
HOP-62 = conditions: Non-small cell lung cancer; 10^−5 molar; 48 hours; SRB

## O=c1c2cc(Cl)ccc2sc2c(NCCO)nc3ccccc3c12 [Compound N9, 10-Chloro-6-(2-ethanolamino)-12H-thiochromeno[2,3-c]quinolin-12-one]
PC-3
  Growth percent PC-3: 71.70%
BT-549
  Growth percent BT-549: 131.62%
NCI-H522
  Growth percent NCI-H522: 76.94%
MDA-MB-231/ATCC
  Growth percent MDA-MB-231/ATCC: 66.62%
DU-145
  Growth percent DU-145: 102.77%
COLO 205
  Growth percent COLO 205: 99.13%
SF-295
  Growth percent SF-295: 92.50%
SNB-75
  Growth percent SNB-75: 90.05%
SN12C
  Growth percent SN12C: 92.52%
HS 578T
  Growth percent HS 578T: 83.24%
HCT-116
  Growth percent HCT-116: 93.62%
T-47D
  Growth percent T-47D: 74.45%
OVCAR-8
  Growth percent OVCAR-8: 78.13%
MDA-MB-486
  Growth percent MDA-MB-486: 39.59%
A549/ATCC
  Growth percent A549/ATCC: 80.72%
SR
  Growth percent SR: 60.44%
HT29
  Growth percent HT29: 87.36%
HL-60(TB)
  Growth percent HL-60(TB): 104.58%
KM12
  Growth percent KM12: 91.93%
MOLT-4
  Growth percent MOLT-4: 78.76%
RPMI-8226
  Growth percent RPMI-8226: 83.81%
786-0
  Growth percent 786-0: 104.43%
RXF 393
  Growth percent RXF 393: 92.81%
SW-620
  Growth percent SW-620: 97.18%
HCT-15
  Growth percent HCT-15: 78.61%
LOX IMVI
  Growth percent LOX IMVI: 86.96%
U251
  Growth percent U251: 84.10%
K-562
  Growth percent K-562: 68.23%
SK-MEL-5
  Growth percent SK-MEL-5: 97.36%
60 cancer cell lines
  Growth percent, Delta: 56.67%
  Growth percent, Mean: 86.33%
  Growth percent, Range: 101.96%
MCF7
  Growth percent MCF7 (Table 2: MCF): 29.66%
NCI-H226
  Growth percent NCI-H226: 83.55%
ACHN
  Growth percent ACHN: 82.25%
NCI-H460
  Growth percent NCI-H460: 100.97%
SK-OV-3
  Growth percent SK-OV-3: 104.57%
NCI-H23
  Growth percent NCI-H23: 86.06%
UO-31
  Growth percent UO-31: 51.97%
CCRF-CEM
  Growth percent CCRF-CEM: 81.07%
HOP-62
  Growth percent HOP-62: 81.90%

## CC(C)CC(C)Nc1nc2ccccc2c2c(=O)c3cc(Cl)ccc3sc12 (stereo not shown) [Compound N13, 10-Chloro-6-((4-methylpentan-2-yl)amino)-12H-thiochromeno[2,3-c]quinolin-12-one]
PC-3
  Growth percent PC-3: 86.33%
BT-549
  Growth percent BT-549: 103.61%
NCI-H522
  Growth percent NCI-H522: 102.30%
MDA-MB-231/ATCC
  Growth percent MDA-MB-231/ATCC: 84.22%
DU-145
  Growth percent DU-145: 113.48%
COLO 205
  Growth percent COLO 205: 93.45%
SF-295
  Growth percent SF-295: 95.92%
SNB-75
  Growth percent SNB-75: 85.02%
SN12C
  Growth percent SN12C: 95.14%
HS 578T
  Growth percent HS 578T: 89.33%
HCT-116
  Growth percent HCT-116: 90.30%
T-47D
  Growth percent T-47D: 73.76%
OVCAR-8
  Growth percent OVCAR-8: 92.79%
MDA-MB-486
  Growth percent MDA-MB-486: 96.02%
A549/ATCC
  Growth percent A549/ATCC: 101.98%
SR
  Growth percent SR: 97.29%
HT29
  Growth percent HT29: 121.02%
HL-60(TB)
  Growth percent HL-60(TB): 103.96%
KM12
  Growth percent KM12: 105.66%
MOLT-4
  Growth percent MOLT-4: 93.68%
RPMI-8226
  Growth percent RPMI-8226: 97.78%
786-0
  Growth percent 786-0: 99.74%
RXF 393
  Growth percent RXF 393: 98.67%
SW-620
  Growth percent SW-620: 92.80%
HCT-15
  Growth percent HCT-15: 96.97%
LOX IMVI
  Growth percent LOX IMVI: 98.90%
U251
  Growth percent U251: 105.12%
K-562
  Growth percent K-562: 106.64%
SK-MEL-5
  Growth percent SK-MEL-5: 90.71%
60 cancer cell lines
  Growth percent, Delta: 22.57%
  Growth percent, Mean: 96.33%
  Growth percent, Range: 49.47%
MCF7
  Growth percent MCF7 (Table 2: MCF): 73.82%
NCI-H226
  Growth percent NCI-H226: 87.55%
ACHN
  Growth percent ACHN: 91.24%
NCI-H460
  Growth percent NCI-H460: 95.17%
SK-OV-3
  Growth percent SK-OV-3: 86.70%
NCI-H23
  Growth percent NCI-H23: 95.10%
UO-31
  Growth percent UO-31: 78.64%
CCRF-CEM
  Growth percent CCRF-CEM: 98.57%
HOP-62
  Growth percent HOP-62: 88.69%
